Data on one substance can be found in paper PMC11574045, “A cofactor-induced repressive type of transcription factor condensation can be induced by synthetic peptides to suppress tumorigenesis” (The EMBO Journal, 2024).

For assay [1], the system named is GFP-TEAD4 condensates. As to the kind of experiment: siRNA screening based on TEAD4 condensate. The assay is classed as cell-based. The conditions noted are these: Figure 2B source data; siRNA against the named gene; Z score based analysis. On the procedure: siRNA reagents were obtained from the Dharmacon Human ON-TARGETplus siRNA Smartpool Library (Thermo) as described previously (Tang et al, [2020]). […] Lipofectamine RNAiMAX reagent (Thermo) at a volume of 0.05 μl per well was then added to the siRNA-loaded plates. Subsequently, cells expressing GFP-TEAD4 were seeded into the plate at 2000 cells per well. After subsequent transfection for 48 h, the cells were fixed with 4% PFA at room temperature for 30 min. DAPI was used to identify individual nuclei. The plates were kept at 4 °C in the dark before being analyzed using the Opera system. Twenty focus fields per well were scanned and analyzed. Scrambled siRNA was used as an internal reference on each plate.

In assay [2] the test system is GFP-TEAD4 condensates in HEK293FT cells. Description: GFP-TEAD4 condensate imaging, condensed fraction in cells. It is filed as cell-based. Particulars: Figure 2D source data, GFP-TEAD4 condensates with co-expressed cofactor, with or without 1,6-Hex, single measurement.
The subject of assay [3] is HGC-27 cells. Description: siRNA screening based on cell growth. Further details: species or system human. Particulars: Figure 2B source data; siRNA against the named gene; Z score based analysis. On the procedure:
For screening based on cell growth, HGC-27 cells (2000 per well) were seeded into a 96-well plate overnight. The individual siRNAs targeting 192 BioID-identified genes were then added into each well to a final concentration of 25 nM. After subsequent incubation for 48 h, the cells were analyzed using an ATP-based CellCounting-Lite^TM 2.0 reagent (Vazyme, Nanjing, China) according to the manufacturer’s instructions. The intracellular ATP contents were measured using an EnSight™ Multimode Microplate Reader (Perkin Elmer).

On to “VGLL4: transcriptional cofactor protein with two TDU domains binding TEAD4”, for which the “Z score of condensed fraction” value in assay [1] was -4.055. Further, the Condensed fraction in assay [2] (replicate 1 of 9) is recorded as 31.2622%; in assay [2] (replicate 2 of 9), 58.3357%; in assay [2] (replicate 3 of 9), 38.0997%; in assay [2] (replicate 4 of 9), 50.0073%; in assay [2] (replicate 5 of 9) it was 50.0033%; in assay [2] (replicate 6 of 9) it was 46.4819%. Further, the Condensed fraction in assay [2] (replicate 7 of 9) stood at 42.8861%; in assay [2] (replicate 8 of 9), 42.8738%; in assay [2] (replicate 9 of 9), 35.7201%. Also, in assay [3], the “Z score of cell growth” value is on record as 3.062.
